Experiment: Blending of stabilizer and sodium hypochlorite: residual oxidant (TRO, FRO) and yield
Assay type: physicochemical
Conditions: Molar Ratio Cl2:N2 4:1
Experimental: A number of biocide formulations were prepared and were applied to samples of process water from a paper mill.

## NS(=O)(=O)O [sulfamic acid]
Caustic in Bleach = 0.5%
  FRO (free residual oxidant): 1219 ppm
  FRO/TRO: 18.61%
  TRO (total residual oxidant): 6550 ppm
  TRO Yield: 80.93%
Caustic in Bleach = 3.2%
  FRO (free residual oxidant): 1450 ppm
  FRO/TRO: 23.02%
  TRO (total residual oxidant): 6300 ppm
  TRO Yield: 77.84%

— patent US9161543B2, “Biocontrol through the use of chlorine-stabilizer blends” (NALCO COMPANY, priority 2011, dated 2015)
